Assay results reported in ChEMBL document CHEMBL4043288, “( S)-2-Amino-3-(5-methyl-3-hydroxyisoxazol-4-yl)propanoic Acid (AMPA) and Kainate Receptor Ligands: Further Exploration of Bioisosteric Replacements and Structural and Biological Investigation” (J Med Chem, 2018).
Activity calls are given as the source filed them. No cut-off for these calls is given here.

Tests used:
Glutamate receptor 2 = Glutamate receptor 2 (Rattus norvegicus, UniProt P19491); test: Displacement of [3H]AMPA from recombinant homomeric rat GluA2 receptor expressed in baculovirus infected Sf9 insect cell membranes
Rattus norvegicus [1] = organism: Rattus norvegicus; test: Selectivity ratio of Ki for recombinant homomeric rat GluK3 expressed in Sf9 insect cells to Ki for recombinant homomeric rat GluK1 expressed in Sf9 insect cells
[2] = target: Glutamate receptor ionotropic, kainate 1 (Rattus norvegicus, UniProt P22756); test: Displacement of [3H]SYM2081 from recombinant homomeric rat GluK1 receptor expressed in baculovirus infected Sf9 insect cell membranes
[3] = target: Glutamate receptor ionotropic, kainate 2 (Rattus norvegicus, UniProt P42260); test: Displacement of [3H]SYM2081 from recombinant homomeric rat GluK2 receptor expressed in baculovirus infected Sf9 insect cell membranes
[4] = target: Glutamate receptor ionotropic, kainate 3 (Rattus norvegicus, UniProt P42264); test: Displacement of [3H]SYM2081 from recombinant homomeric rat GluK3 receptor expressed in baculovirus infected Sf9 insect cell membranes
Rattus norvegicus [5] = organism: Rattus norvegicus; test: Selectivity ratio of Ki for recombinant homomeric rat GluK3 expressed in Sf9 insect cells to Ki for recombinant homomeric rat GluA2 expressed in Sf9 insect cells
Rattus norvegicus [6] = test: Analgesic activity in Wistar Han rat assessed as inhibition of formalin-induced pain by measuring flexing duration in early phase at 2 mg/kg, ip administered 30 mins prior to formalin injection measured for first 15 mins after formalin injection; format: functional, organism-based
Rattus norvegicus [7] = test: Analgesic activity in Wistar Han rat assessed as inhibition of formalin-induced pain by measuring time spent licking injected paw in early phase at 2 mg/kg, ip administered 30 mins prior to formalin injection measured for first 15 mins after formalin injection; format: functional, organism-based
Rattus norvegicus [8] = test: Analgesic activity in Wistar Han rat assessed as inhibition of formalin-induced pain by measuring paw-jerk frequency in early phase at 2 mg/kg, ip administered 30 mins prior to formalin injection measured for first 15 mins after formalin injection; format: functional, organism-based
Rattus norvegicus [9] = test: Analgesic activity in Wistar Han rat assessed as inhibition of formalin-induced pain by measuring locomotor activities at 2 mg/kg, ip administered 30 mins prior to formalin injection measured after 45 mins by formalin test; format: functional, organism-based
Rattus norvegicus [10] = test: Analgesic activity in Wistar Han rat assessed as inhibition of formalin-induced pain by measuring locomotor activities at 2 mg/kg, ip administered 30 mins prior to formalin injection measured after 30 mins by formalin test; format: functional, organism-based
Rattus norvegicus [11] = test: Analgesic activity in Wistar Han rat assessed as inhibition of formalin-induced pain by measuring paw-jerk frequency in early phase at 2 mg/kg, ip administered 30 mins prior to formalin injection measured for 15 to 60 mins after formalin injection; format: functional, organism-based
Rattus norvegicus [12] = test: Analgesic activity in Wistar Han rat assessed as inhibition of formalin-induced pain by measuring flexing duration in late phase at 2 mg/kg, ip administered 30 mins prior to formalin injection measured for 15 to 60 mins after formalin injection
Rattus norvegicus [13] = test: Analgesic activity in Wistar Han rat assessed as inhibition of formalin-induced pain by measuring time spent licking injected paw in late phase at 2 mg/kg, ip administered 30 mins prior to formalin injection measured for 15 to 60 mins after formalin injection
[14] = Permeability of compound in rat brain at 100 uM perfused for 60 secs by LC-MS analysis; format: ADME, tissue-based; conditions: not told, other: brain perfusion, read-out: permeability

Sequence of Glutamate receptor 2 (P19491 whole entry): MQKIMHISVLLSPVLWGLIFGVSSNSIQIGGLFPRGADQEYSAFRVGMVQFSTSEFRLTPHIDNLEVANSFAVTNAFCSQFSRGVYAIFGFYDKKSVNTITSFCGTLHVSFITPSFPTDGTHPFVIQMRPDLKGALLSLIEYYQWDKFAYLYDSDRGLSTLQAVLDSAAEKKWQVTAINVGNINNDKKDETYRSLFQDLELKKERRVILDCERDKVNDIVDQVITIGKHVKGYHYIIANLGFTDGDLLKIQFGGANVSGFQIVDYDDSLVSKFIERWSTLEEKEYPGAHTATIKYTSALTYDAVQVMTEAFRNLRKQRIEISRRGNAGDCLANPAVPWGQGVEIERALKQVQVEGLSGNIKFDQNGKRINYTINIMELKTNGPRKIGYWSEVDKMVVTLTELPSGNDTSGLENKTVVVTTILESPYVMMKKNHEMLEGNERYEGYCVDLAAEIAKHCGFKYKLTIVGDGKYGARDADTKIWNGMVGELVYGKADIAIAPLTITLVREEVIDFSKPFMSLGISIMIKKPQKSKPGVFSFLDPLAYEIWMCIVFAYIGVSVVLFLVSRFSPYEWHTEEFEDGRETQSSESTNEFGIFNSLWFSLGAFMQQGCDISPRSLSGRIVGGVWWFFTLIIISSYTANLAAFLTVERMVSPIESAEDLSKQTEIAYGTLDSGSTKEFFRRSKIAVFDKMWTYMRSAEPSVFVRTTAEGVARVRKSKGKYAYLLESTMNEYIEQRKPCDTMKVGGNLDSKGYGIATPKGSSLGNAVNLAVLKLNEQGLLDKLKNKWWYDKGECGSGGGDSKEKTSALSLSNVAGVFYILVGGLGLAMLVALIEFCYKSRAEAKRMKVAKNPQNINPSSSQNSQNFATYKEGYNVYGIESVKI
Sequence of Glutamate receptor ionotropic, kainate 1 (P22756 whole entry): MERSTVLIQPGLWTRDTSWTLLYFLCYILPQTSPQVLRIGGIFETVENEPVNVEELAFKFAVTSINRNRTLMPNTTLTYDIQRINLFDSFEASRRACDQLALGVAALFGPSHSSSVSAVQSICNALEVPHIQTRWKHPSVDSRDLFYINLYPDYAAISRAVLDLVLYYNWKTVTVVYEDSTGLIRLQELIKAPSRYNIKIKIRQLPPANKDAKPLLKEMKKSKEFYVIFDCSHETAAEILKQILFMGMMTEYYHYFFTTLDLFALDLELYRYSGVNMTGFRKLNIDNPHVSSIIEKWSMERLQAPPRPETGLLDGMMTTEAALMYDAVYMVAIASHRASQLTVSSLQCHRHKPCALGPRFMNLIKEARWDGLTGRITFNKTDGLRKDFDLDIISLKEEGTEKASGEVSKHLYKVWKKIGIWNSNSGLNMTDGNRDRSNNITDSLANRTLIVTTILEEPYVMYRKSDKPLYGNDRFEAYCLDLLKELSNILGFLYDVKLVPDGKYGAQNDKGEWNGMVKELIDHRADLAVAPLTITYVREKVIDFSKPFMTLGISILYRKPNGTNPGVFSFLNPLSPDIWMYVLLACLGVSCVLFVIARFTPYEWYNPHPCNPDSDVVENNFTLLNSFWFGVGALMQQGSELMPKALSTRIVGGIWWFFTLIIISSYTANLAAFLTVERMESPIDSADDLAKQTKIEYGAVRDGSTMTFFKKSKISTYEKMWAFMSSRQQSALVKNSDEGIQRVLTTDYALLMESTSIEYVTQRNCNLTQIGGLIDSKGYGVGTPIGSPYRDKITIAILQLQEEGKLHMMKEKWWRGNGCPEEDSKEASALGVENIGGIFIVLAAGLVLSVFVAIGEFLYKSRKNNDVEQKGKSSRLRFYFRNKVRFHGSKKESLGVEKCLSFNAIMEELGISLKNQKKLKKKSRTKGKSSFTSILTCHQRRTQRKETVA
Sequence of Glutamate receptor ionotropic, kainate 3 (P42264 whole entry): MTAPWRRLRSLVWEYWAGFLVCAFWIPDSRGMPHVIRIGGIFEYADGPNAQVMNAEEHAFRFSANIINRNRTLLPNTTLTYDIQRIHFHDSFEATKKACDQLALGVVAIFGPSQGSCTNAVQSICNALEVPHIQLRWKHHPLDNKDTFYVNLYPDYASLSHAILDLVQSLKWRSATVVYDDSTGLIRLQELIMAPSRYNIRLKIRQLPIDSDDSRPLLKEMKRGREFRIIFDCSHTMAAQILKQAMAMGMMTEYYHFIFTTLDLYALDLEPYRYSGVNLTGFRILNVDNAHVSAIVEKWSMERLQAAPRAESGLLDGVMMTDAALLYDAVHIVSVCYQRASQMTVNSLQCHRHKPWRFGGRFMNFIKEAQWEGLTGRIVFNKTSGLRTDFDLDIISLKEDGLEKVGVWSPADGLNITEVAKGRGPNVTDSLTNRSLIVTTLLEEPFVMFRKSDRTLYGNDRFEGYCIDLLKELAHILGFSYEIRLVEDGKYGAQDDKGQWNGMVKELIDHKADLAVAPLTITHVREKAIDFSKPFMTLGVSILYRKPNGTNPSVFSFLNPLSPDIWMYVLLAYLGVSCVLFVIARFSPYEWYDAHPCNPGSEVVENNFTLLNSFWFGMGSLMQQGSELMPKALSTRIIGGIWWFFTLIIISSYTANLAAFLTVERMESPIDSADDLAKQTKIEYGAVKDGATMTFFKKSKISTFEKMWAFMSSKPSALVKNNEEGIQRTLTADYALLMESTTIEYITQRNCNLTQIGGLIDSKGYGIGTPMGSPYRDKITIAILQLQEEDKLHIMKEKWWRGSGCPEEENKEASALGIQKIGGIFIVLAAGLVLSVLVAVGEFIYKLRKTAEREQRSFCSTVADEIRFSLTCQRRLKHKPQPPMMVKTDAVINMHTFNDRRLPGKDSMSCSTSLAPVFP
Sequence of Glutamate receptor ionotropic, kainate 2 (P42260 whole entry): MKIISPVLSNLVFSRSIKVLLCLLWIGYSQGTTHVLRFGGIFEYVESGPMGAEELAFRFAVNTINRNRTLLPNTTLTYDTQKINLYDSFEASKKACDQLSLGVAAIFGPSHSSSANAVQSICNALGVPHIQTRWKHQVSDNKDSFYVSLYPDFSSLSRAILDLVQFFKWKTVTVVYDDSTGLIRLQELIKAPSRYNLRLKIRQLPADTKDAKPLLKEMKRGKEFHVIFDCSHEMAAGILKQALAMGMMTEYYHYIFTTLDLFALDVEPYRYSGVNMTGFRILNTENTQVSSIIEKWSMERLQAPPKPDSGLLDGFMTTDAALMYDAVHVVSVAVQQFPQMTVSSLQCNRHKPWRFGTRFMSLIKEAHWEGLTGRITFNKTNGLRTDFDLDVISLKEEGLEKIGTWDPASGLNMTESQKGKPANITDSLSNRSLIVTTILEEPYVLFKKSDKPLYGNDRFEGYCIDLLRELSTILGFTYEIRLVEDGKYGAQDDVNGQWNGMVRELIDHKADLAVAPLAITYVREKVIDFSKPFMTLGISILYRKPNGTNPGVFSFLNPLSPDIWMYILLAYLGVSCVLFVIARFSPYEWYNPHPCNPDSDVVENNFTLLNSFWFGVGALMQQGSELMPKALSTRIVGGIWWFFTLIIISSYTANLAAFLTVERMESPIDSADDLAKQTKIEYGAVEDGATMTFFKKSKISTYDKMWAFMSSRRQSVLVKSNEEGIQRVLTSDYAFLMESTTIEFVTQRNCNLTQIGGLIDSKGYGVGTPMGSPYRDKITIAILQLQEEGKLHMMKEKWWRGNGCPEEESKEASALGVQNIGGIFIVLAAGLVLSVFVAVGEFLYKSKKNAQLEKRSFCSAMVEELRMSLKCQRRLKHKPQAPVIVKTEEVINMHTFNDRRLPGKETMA

Papp at 1 min, 100 µM [14]	SMILES	Ki (Glutamate receptor 2)	Ratio Ki (Rattus norvegicus [1])	Ki [2]	Ki [3]	Ki [4]	Ratio Ki (Rattus norvegicus [5])	Activity (Rattus norvegicus [6])	Activity (Rattus norvegicus [7])	Activity (Rattus norvegicus [8])	Activity (Rattus norvegicus [9])	Activity (Rattus norvegicus [10])	Activity (Rattus norvegicus [11])	Activity (Rattus norvegicus [12])	Activity (Rattus norvegicus [13])
–	CN1Cc2c(n(C[C@H](N)C(=O)O)c(=O)[nH]c2=O)C1	1.99 µM	6	0.356 µM	> 1000 µM	2.15 µM	1	–	–	–	–	–	–	–	–
–	N[C@@H](Cn1c2c(c(=O)[nH]c1=O)COC2)C(=O)O	–	–	0.586 µM	> 1000 µM	111 µM	–	–	–	–	–	–	–	–	–
–	N[C@@H](Cn1c(=O)[nH]c(=O)c2cscc21)C(=O)O	–	–	–	–	–	–	Active	Active	Active	Active	Active	Active	Active	Active
–	N[C@@H](Cn1c2c(c(=O)[nH]c1=O)CCC2)C(=O)O	–	–	–	> 1000 µM	–	–	–	–	–	–	–	–	–	–
0.59 ×10⁻⁶ cm/s	N[C@@H](Cn1c(=O)n(Cc2ccsc2C(=O)O)c(=O)c2cscc21)C(=O)O	–	–	–	–	–	–	Active	Active	Active	–	Active	Active	Active	Active
–	N[C@@H](Cn1c2c(c(=O)[nH]c1=O)CNC2)C(=O)O	2.37 µM	21	0.869 µM	> 1000 µM	18.1 µM	8	–	–	–	–	–	–	–	–
–	N[C@@H](Cn1c(=O)n(Cc2nnc(O)o2)c(=O)c2cscc21)C(=O)O	> 100 µM	> 3	36 µM	> 1000 µM	100 µM	–	–	–	–	–	–	–	–	–
